Measured values: paper PMC5848512, “The Penicillium chrysogenum transporter PcAraT enables high-affinity, glucose-insensitive L-arabinose transport in Saccharomyces cerevisiae” (Biotechnology for Biofuels, 2018)

Key:
PcAraT = biological target: T1, PcAraT (Penicillium rubens, UniProt B6HE12); test: inhibition of […]-L-arabinose uptake in transporter-deleted yeast cells; format: cell-based
T1 construct: gene Pc20g01790; full-length ORF, codon-pair optimized synthetic gene, pRS313-PcaraT (HXT7 promoter) in S. cerevisiae DS68625 (hxt1-7, gal2 deleted)
T1 sequence (B6HE12 1-511): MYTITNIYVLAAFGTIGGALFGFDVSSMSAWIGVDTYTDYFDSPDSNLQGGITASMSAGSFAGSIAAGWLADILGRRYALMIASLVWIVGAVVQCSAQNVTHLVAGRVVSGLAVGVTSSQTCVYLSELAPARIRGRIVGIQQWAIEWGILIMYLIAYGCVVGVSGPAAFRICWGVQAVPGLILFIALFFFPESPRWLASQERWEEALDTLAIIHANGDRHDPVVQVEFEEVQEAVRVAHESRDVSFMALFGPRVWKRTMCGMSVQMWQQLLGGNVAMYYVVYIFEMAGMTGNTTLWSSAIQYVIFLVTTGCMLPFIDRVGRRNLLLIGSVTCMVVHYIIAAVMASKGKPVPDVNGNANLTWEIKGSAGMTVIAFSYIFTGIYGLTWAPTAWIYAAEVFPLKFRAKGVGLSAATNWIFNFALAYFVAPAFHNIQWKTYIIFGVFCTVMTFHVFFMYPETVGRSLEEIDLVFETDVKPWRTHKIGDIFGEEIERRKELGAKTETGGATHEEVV

Gal2 = biological target: T2, Gal2 (Saccharomyces cerevisiae, UniProt P13181); test: as above; format: cell-based
T2 construct: full-length, pRS313-GAL2 (HXT7 promoter) in S. cerevisiae DS68625 (hxt1-7, gal2 deleted)
T2 sequence (P13181 1-574): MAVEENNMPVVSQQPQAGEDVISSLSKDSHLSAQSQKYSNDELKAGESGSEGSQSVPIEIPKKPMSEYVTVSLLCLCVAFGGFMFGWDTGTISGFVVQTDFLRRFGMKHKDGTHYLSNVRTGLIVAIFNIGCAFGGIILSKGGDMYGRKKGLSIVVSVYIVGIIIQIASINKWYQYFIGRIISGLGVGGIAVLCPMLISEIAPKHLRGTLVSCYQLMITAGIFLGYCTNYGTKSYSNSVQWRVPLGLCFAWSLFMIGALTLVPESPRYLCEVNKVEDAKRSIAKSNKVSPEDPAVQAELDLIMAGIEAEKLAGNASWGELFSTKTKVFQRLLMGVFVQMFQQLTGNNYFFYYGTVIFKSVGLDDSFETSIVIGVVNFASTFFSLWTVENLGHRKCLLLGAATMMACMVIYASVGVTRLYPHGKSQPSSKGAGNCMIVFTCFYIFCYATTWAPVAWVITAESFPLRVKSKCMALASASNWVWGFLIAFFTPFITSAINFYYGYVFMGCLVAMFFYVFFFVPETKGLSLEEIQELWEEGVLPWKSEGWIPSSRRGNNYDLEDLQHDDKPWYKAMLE

inhibition at 100000 µM (PcAraT) [%] | inhibition at 100000 µM (Gal2) [%] | SMILES
63 | 85 | OC[C@H]1OC(O)[C@H](O)[C@@H](O)[C@@H]1O (stereo partly drawn) [D-glucose]
22 | 29 | OC1OC[C@@H](O)[C@H](O)[C@H]1O (stereo partly drawn) [D-xylose]
